Where two headings read alike, the source gives them in different places.
Assays:
nAChR currents in OHCs = target: T1, nAChR currents in OHCs (Rattus norvegicus, UniProt P43144+Q9JLB5); assay: Steady-state block of nAChR currents in OHCs (BAPTA intracellular solution); format: cell-based, Wistar rats; conditions: −94 mV, 200 μM ACh, 10 mM BAPTA
T1 construct: Currents through nAChRs were recorded from an OHC; from tissue; host or cells: outer hair cells in the apical turn of the organ of Corti, Wistar rat
T1 sequence (P43144 26-479): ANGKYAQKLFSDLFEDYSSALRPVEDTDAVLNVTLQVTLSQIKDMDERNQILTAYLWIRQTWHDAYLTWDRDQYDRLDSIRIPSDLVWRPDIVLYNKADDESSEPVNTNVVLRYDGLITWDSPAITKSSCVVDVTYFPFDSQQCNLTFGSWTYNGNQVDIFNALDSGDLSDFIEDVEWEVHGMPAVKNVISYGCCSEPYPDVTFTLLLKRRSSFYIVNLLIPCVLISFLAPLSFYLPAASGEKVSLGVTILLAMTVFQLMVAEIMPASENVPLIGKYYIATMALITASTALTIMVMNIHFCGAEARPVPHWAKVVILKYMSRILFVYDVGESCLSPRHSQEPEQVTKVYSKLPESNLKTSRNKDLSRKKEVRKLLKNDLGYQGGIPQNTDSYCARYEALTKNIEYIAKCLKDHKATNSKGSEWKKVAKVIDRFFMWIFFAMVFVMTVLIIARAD
T1 sequence (Q9JLB5 25-447): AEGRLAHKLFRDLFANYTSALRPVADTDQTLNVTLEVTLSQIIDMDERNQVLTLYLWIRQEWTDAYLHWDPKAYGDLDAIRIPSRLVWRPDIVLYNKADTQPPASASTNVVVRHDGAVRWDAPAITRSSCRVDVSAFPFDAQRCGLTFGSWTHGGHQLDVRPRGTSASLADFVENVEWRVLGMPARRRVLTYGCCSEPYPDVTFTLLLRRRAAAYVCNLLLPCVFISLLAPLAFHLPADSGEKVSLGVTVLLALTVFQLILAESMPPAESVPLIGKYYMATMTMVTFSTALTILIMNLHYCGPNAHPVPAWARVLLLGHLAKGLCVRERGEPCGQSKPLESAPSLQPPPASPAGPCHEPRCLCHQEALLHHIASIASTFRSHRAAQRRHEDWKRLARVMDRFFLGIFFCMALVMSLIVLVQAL
Procedure: (§1) The apical turn of the organ of Corti was dissected from cochleae of three to six week old Wistar rats as described previously (Oliver et al., 1999, J Physiol (Lond) 519, 791-800; Oliver et al., 2000, Neuron 26, 595-601). The preparation was performed in a solution containing (in mM) 144 NaCl, 5.8 KCl, 0.1 CaCl2, 2.1 MgCl2, 10 HEPES, 0.7 Na2HPO4, 5.6 glucose, pH adjusted to 7.3 with NaOH. For recordings, OHCs located between half and one turn from the apex of the cochlea were chosen. If necessary, supporting cells were removed with gentle suction from a cleaning pipette carefully avoiding mechanical disturbance of the efferent nerve terminals.
Whole-cell patch-clamp recordings were performed with an Axopatch 200B amplifier (Axon Instruments, Foster City, Calif.) at room temperature (22-25° C.). Electrodes were pulled from quartz glass, had resistances of 2-3 MΩ and were filled with intracellular solution (in mM): 135 KCl, 3.5 MgCl2, 0.1 CaCl2, 5 EGTA, 5 HEPES, 2.5 Na2ATP. […]
(A) Steady-state block of nAChR currents in OHCs by memantine. Currents through nAChRs were recorded from an OHC at a holding potential of −94 mV. […] (B) Dose-inhibition relation for memantine block of nAChR currents (squares), recorded from 4 OHCs as in (A). Steady-state amplitudes were normalized to the value recorded in the absence of memantine. […]

neuronal α4/β2 nAChRs = neuronal α4/β2 nAChRs (Homo sapiens, UniProt P17787+P43681); conditions: at −100 mV; cited from earlier work
Sequence of neuronal α4/β2 nAChRs (P43681 29-627 limits assumed): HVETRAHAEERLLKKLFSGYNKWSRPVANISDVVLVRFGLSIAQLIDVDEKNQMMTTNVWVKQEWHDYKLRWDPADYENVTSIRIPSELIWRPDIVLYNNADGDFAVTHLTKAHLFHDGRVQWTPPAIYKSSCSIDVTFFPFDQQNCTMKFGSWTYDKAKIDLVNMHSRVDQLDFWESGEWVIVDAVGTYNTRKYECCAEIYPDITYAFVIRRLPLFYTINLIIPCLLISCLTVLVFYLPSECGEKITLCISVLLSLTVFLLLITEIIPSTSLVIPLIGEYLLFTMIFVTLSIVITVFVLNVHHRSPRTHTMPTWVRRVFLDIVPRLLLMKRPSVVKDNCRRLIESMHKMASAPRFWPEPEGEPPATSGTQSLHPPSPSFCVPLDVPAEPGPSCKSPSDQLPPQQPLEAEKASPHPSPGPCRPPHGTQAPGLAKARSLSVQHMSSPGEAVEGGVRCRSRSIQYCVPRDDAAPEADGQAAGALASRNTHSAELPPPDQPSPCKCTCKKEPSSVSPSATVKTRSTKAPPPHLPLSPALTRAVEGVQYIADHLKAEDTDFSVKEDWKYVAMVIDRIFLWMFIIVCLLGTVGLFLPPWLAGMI
Sequence of neuronal α4/β2 nAChRs (P17787 26-502): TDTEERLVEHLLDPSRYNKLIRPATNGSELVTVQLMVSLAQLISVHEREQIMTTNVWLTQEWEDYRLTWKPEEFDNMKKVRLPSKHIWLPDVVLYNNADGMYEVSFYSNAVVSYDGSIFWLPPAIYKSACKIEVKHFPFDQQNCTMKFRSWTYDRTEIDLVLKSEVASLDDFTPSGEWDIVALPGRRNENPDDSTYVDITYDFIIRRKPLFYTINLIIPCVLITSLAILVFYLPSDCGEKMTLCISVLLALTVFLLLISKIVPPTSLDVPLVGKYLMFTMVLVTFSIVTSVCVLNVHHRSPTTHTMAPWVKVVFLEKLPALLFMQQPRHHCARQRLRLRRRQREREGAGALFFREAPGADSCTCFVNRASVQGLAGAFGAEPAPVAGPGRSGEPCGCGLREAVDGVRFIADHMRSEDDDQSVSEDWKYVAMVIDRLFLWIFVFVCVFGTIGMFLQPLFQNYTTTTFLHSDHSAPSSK

α9/α10 nAChR = target: T2, α9/α10 nAChR (Rattus norvegicus, UniProt P43144+Q9JLB5); assay: Two-electrode voltage-clamp on α9/α10 nAChR expressed in Xenopus oocytes; format: cell-based
T2 construct: The coding region of the rat α10 gene; expressed in transfected cells; host or cells: Xenopus laevis oocytes (mRNA injection)
T2 sequence (P43144 26-479): as the sequence (P43144 26-479) above
T2 sequence (Q9JLB5 25-447): as the sequence (Q9JLB5 25-447) above
Procedure: (§2) In vitro mRNA synthesis and oocyte injections were performed as previously described (Fakler et al., 1995, Cell 80, 149-154; Oliver et al., 2000, see above). The electrophysiology on oocytes was also as described previously (Oliver et al., 2000, see above). In detail, AChR subunits and SK2 channels were heterologously expressed in Xenopus oocytes. Oocytes were surgically removed from adult females and dissected manually. 4-5 day prior to electrophysiological recordings, Dumont stage VI oocytes were injected with about 50 ng RNA. For coexpression experiments, the total amount of RNA was kept constant and the different RNAs were coinjected in equal concentrations. Two-electrode voltage-clamp measurements were performed with a TurboTec 01C amplifier (npi, Tamm, Germany), using microelectrodes of 0.1 to 0.5 MΩ filled with 3 M KCl. Extracellular medium was CaNFR, containing (in mM): 120 KCl, 2.5 KCl, 2 CaCl2, 10 HEPES, pH adjusted to 7.3 with NaOH. For experiments in the absence of extracellular Ca^2+, the extracellular solution was MgNFR (in mM): 120 KCl, 2.5 KCl, 2 MgCl2, 10 HEPES, pH adjusted to 7.3 with NaOH. ACh and memantine were added from stock solutions and applied through an application system, that allowed solution exchange with a time constant of ˜1s. Currents were filtered at 100 Hz and sampled at a frequency of 1 kHz. Dose-inhibition relations obtained from electrophysiological experiments were fitted to the empirical Hill equation, [formula]
where Inorm is the normalized current, c is the blocker concentration, IC50 is the half-inhibitory concentration, and nH is the Hill coefficient. Data analysis and fitting was performed with IgorPro (Wavemetrics, Lake Oswego, Oreg.) on a Macintosh PowerPC. Unless stated otherwise, data are presented as mean±standard deviation.
The coding region of the rat α10 gene (GenBank Accession No. AF196344) was amplified from rat brain cDNA by PCR using 5′- and 3′-adapter-primers containing suitable restriction sites (GA-GACCCGGGAGCTCCACC, […] and […]). The amplified fragments were subcloned into the Xenopus oocyte expression vector pGEM-HE (gift of Dr. J. Tytgat), yielding pGEM-HE-nAChR-α10, verified by sequencing. Capped mRNAs for α9, α10 and SK2 were synthesized in vitro using the mMESSAGE mMACHINE kit (Ambion, Austin, Tex.). To detect α10 and α9 transcripts, PCR was performed using reverse transcribed RNA isolated from either OHCs (containing some Deiters cells) or supporting cells (Deiters and Hensen's cells) as template. Cells were collected from rat organs of Corti using suction glass micropipettes (diameter 10 μm). RNA was prepared from ˜100 cells of each fraction using the Qiagen RNeasy kit (Qiagen, Hilden, FRG) according to the manufacturers instructions. The oligonucleotides used as primers in the PCR reactions were chosen to span an intron in the human α9 and α10 genes to allow differentiation between products originating from cDNA and products originating from contaminating genomic DNA.
In (A) currents evoked by activation of α9/α10 nAChRs are dependent on external Ca^2+. Traces show subsequent applications of 100 μM ACh to the same oocyte in CaNFR (Ca^2+) and MgNFR (Mg^2+) at −80 mV. (B) Currents from homomeric α9 (upper trace) and heteromeric α9/α10 nAChRs (lower trace), recorded by application of 100 μM ACh in nominally Ca^2+-free external solution (MgNFR; −80 mV). (C) Current amplitudes from oocytes expressing α9 and α9/α10, recorded as in FIG. 3B (mean±standard error from 12 and 15 oocytes, respectively). (D) ACh-induced (100 μM) currents recorded from α9/α10 nAChRs in the presence of the memantine concentrations indicated. (E) Memantine dose-inhibition curves of α9/α10 nAChR. Peak currents were recorded as in (D) and normalized to the current amplitude after washout of the blocker. […] (F) I-v relations of α9/α10 nAChR recorded in the absence (black) and presence (gray trace) of 1 μM memantine in response to 2 s voltage ramps from −100 to +50 mV. […]

[1] = target: NMDA-type glutamate receptors; conditions: at −70 mV; cited from earlier work
[2] = target: T3, α9/α10 heteromeric acetylcholine receptors (Rattus norvegicus, UniProt P43144+Q9JLB5); assay: Experiment 6: voltage-clamp on alpha9/alpha10 acetylcholine receptors in Xenopus laevis oocytes; format: cell-based; conditions: cells held at −30 mV, 100 μM acetylcholine; read-out: halfmaximal inhibition concentration
T3 construct: The coding region of the rat α10 gene; expressed in transfected cells; host or cells: Xenopus laevis oocytes (mRNA injection)
T3 sequence (P43144 26-479): as the sequence (P43144 26-479) above
T3 sequence (Q9JLB5 25-447): as the sequence (Q9JLB5 25-447) above
Procedure: as §2, with “For experiments in the absence of extracellular Ca^2+, the extracellular solution was MgNFR (in mM): 120 KCl, 2.5 KCl, 2 MgCl2, 10 HEPES, pH adjusted to 7.3 with NaOH. ACh and memantine were added from stock solutions and applied through an application system, that allowed solution exchange with a time constant of ˜1s. Currents were filtered at 100 Hz and sampled at a frequency of 1 kHz. Dose-inhibition relations obtained from electrophysiological experiments were fitted to the empirical Hill equation, [formula]” left out
For further characterization of memantine treatment on the nAChR, the mRNA of alpha9/alpha10 subunits of the acetylcholine receptor were injected in oocytes of Xenopus laevis. […] In this experiment the polarization potential of the cells was measured after application of 100 μM acetylcholine in the presence or absence of memantine. […]

[3] = test system: inhibitory postsynaptic currents (IPSC) in outer hair cells (OHCs); assay: Patch-clamp recording of inhibitory postsynaptic currents (IPSC) in outer hair cells; format: cell-based, Wistar rats
Procedure: as §1
Whole-cell patch-clamp recordings were performed with an Axopatch 200B amplifier (Axon Instruments, Foster City, Calif.) at room temperature (22-25° C.). Electrodes were pulled from quartz glass, had resistances of 2-3 MΩ and were filled with intracellular solution (in mM): 135 KCl, 3.5 MgCl2, 0.1 CaCl2, 5 EGTA, 5 HEPES, 2.5 Na2ATP. For one series of experiments, an intracellular solution containing the Ca^2+-chelator BAPTA was used (in mM): 120 KCl, 3.5 MgCl2, 10 BAPTA, 5 HEPES, 2.5 Na2ATP. The pH of both solutions was adjusted to pH 7.3 with KOH. Membrane potential was corrected for the electrode junction potential (−4 mV). Whole-cell series resistance ranged from 4 to 9 MΩ and was not compensated. Currents were filtered at 1 kHz and sampled at 5 kHz. The specimen were continuously superfused with extracellular solution (in mM: 144 NaCl, 5.8 KCl, 2 CaCl2, 0.9 MgCl2, 10 HEPES, 0.7 Na2HPO4, 5.6 glucose, pH adjusted to 7.3 with NaOH). Chemicals as well as depolarizing solutions were applied via a glass capillary (diameter approximately 80 μm) positioned close to the organ of Corti. […]
In FIG. 1, postsynaptic currents were recorded from OHCs in voltage-clamp experiments when cells were held at −64 mV and the whole Corti preparation was superfused with high extracellular K^+ to depolarize the presynapse. […] This dose-dependent response determined for the IPSC in OHCs is illustrated in FIG. 1B.

[4] = target: T4, nAChR-induced SK2 current (α9/α10 nAChR with SK2 channels) (Rattus norvegicus, UniProt P43144+Q9JLB5); assay: nAChR-induced SK2 current in oocytes coexpressing α9, α10 and SK2; format: cell-based; conditions: −30 mV, 100 μM ACh
T4 construct: The coding region of the rat α10 gene; expressed in transfected cells; host or cells: Xenopus laevis oocytes (mRNA co-injection)
T4 sequence (P43144 26-479): as the sequence (P43144 26-479) above
T4 sequence (Q9JLB5 25-447): as the sequence (Q9JLB5 25-447) above
Procedure: as §2, with “ACh and memantine were added from stock solutions and applied through an application system, that allowed solution exchange with a time constant of ˜1s. Currents were filtered at 100 Hz and sampled at a frequency of 1 kHz. Dose-inhibition relations obtained from electrophysiological experiments were fitted to the empirical Hill equation, [formula]” left out
(A) Application of 100 μM ACh for the time indicated to an oocyte coexpressing α9, α10, and SK2. […] Peak outward currents were recorded at −30 mV and were normalized to the values preceding memantine application.

For `CC12CC3CC(C)(C1)CC(N)(C3)C2` [memantine, 3.5-dimethyl-1-adamantanamine], the “Hill coefficient nH of block of nAChR currents in OHCs” value (nAChR currents in OHCs) is given as 0.9, the IC50 (nAChR currents in OHCs; steady-state) is given as 1100 nM and the IC50 (neuronal α4/β2 nAChRs) is given as 7000 nM. The “Increase of memantine block from +50 mV to −80 mV (factor)” value (α9/α10 nAChR; 1 μM memantine, voltage ramps, MgNFR) was 1.6, the IC50 (α9/α10 nAChR; CaNFR (2 mM Ca2+), 100 μM ACh, peak currents, read-out: IC50 of block of α9/α10 nAChR current) was 1300 nM and the “Hill coefficient nH of block of α9/α10 nAChR current” value (α9/α10 nAChR; CaNFR, 100 μM ACh) was 1.0. For the same compound, the IC50 (α9/α10 nAChR; MgNFR (nominally Ca2+-free), 100 μM ACh, peak currents, read-out: IC50 of block of α9/α10 nAChR current) was 1600 nM, the “Hill coefficient nH of block of α9/α10 nAChR current” value (α9/α10 nAChR; MgNFR, 100 μM ACh) was 1.2 and the IC50 (α9/α10 nAChR; summary of FIGS. 3E, 5B, read-out: affinity for memantine of α9/α10 receptors) was about 1000 nM. For the same compound, the IC50 [1] was about 1000 nM, the IC50 [2] was about 1000 nM and the “Hill coefficient of inhibition of IPSCs” value [3] was 2. For the same compound, the “fold higher concentrations required for inhibition of IPSCs than for inhibition of SK2 currents in the oocyte system” value ([3]; IPSCs in OHCs vs SK2 currents in oocytes) was 10 fold, the IC50 ([3]; Rattus norvegicus, iPSC, read-out: IC50 for inhibition of IPSC in OHCs) was about 16600 nM and the “Hill coefficient nH of inhibition of the nAChR-induced SK2 current” value [4] was 1.1. The IC50 ([4]; peak outward currents, read-out: IC50 of inhibition of the nAChR-induced SK2 current) was 700 nM.

Source: US20040048892A1, “Treatment of diseases with adamantane derivatives” (priority 2000, published 2004)
